The text below walks through data of publication PMC10463376, “Design, synthesis, in vitro anticancer, molecular docking and SAR studies of new series of pyrrolo[2,3-d]pyrimidine derivatives” (BMC Chemistry, 2023).

In data set [1] the test system is HCT116 colorectal cancer cells. Nature of the data set: MTT assay, HCT116. The settings on record: for IC50 / cytotoxicity at 100 µg/mL: Homo sapiens, HCT-116, 72 h; for IC50: read-out: IC50 HCT116. The text has this: (§1) All of the following steps were done in a sterile Laminar flow class II biosafety cabinet (Baker, SG406INT, Sanford, ME, USA). DMEM was used as a suspension medium for breast cancer (MCF7), colorectal cancer (HCT116), prostate cancer (PC3), liver cancer (HePG2), pancreatic cancer (PACA2) and lung cancer (A549), while normal cell line (BJ1) was suspended in DMEM-F12 medium. The selected cell lines were purchased from American Type Culture Collection (ATCC). The media were supplemented with a 1% antimycotic-antibiotic mixture (10,000 µg/ml streptomycin sulfate, 25 µg/ml Amphotericin B, and 10,000 U/ml Potassium Penicillin) and 1% L-glutamine. 10 × 10^4cells/well were seeded in 96 well microtiter plates and incubated for 24 h at 37 ℃ under 5% carbon dioxide using a water-jacketed Carbon dioxide incubator (Sheldon, SCO5A, OR, USA). […] After the incubation time of 72 h, the medium was removed. Afterward, 40 µl MTT salt ([…]) was added to each well and kept for 4 h under the same conditions of 37 °C and 5% carbon dioxide. Finally, 200 μl of 10% Sodium dodecyl sulfate (SDS) in deionized water was added to each well and incubated overnight at 37 °C. The step of SDS addition was done to stop the reaction and dissolve the formed formazan crystals. The absorbance was then measured at a wavelength of 595 nm and the reference wavelength was set at 620 nm using a microplate multi-well reader (Bio-Rad Laboratories Inc., model 3356, California, USA). […] A statistical significance analysis was determined between the samples and the negative control using an independent t-test by SPSS 11 program. Dimethyl sulfoxide (DMSO) was the vehicle that dissolved our synthesized compounds and its concentration in the cells was less than 0.2%. IC50 values were calculated using the GraphPad Prism 6 program. The degree of selectivity of the synthetic compounds was expressed as SI = IC50 of a pure compound in a normal cell line/IC50 of the same pure compound in the cancer cell line, where IC50 is the concentration of the compound required to kill 50% of the cells.
(In general: Tetrazolium dyes change colour on reduction, which living cells bring about.)

Data set [2] has as its system PC3 prostate cancer cells. Nature of the data set: MTT assay, PC3. The settings on record: 72 h; for IC50 / cytotoxicity at 100 µg/mL: Homo sapiens; for IC50: read-out: IC50 PC3.
Text: as §1

A further data set concerns A549 lung cancer cells. Nature of the data set: MTT assay, A549. The note with it: for IC50 / cytotoxicity at 100 µg/mL: Homo sapiens, A549, 72 h; for IC50: read-out: IC50 A549.
Text: as §1

For the next data set, the system named is MCF7 breast cancer cells. Nature of the data set: MTT assay, MCF7. The settings on record: for IC50 / cytotoxicity at 100 µg/mL: Homo sapiens, MCF7, 72 h; for IC50: read-out: IC50 MCF7; for cytotoxicity at 100 µg/mL / cytotoxicity: read-out: MTT cell proliferation mortality assay (%) MCF7; for cytotoxicity: at 100 μg/ml, 72 h.
Text: as §1

Data set [3] has as its system PACA2 pancreatic cancer cells. Nature of the data set: MTT assay, PACA2. The settings on record: Homo sapiens, PaCa-2, 72 h; for cytotoxicity at 100 µg/mL: read-out: MTT cell proliferation mortality assay (%) PACA2; for IC50: read-out: IC50 PACA2.
Text: as §1

A further data set concerns HePG2 liver cancer cells. Nature of the data set: MTT assay, HePG2. The settings on record: Homo sapiens, HepG2, 72 h; for IC50: read-out: IC50 HePG2; for cytotoxicity at 100 µg/mL: read-out: MTT cell proliferation mortality assay (%) HePG2.
Text: as §1

A further data set concerns Bcl2. In words: ELISA Bcl2 in MCF7 cells. The settings on record: MCF7 cells treated with IC50; untreated control 14.37. Format: cell-based, human. The text has this:
Elisa assay was used to determine the concentrations of Human caspases-3, -8, Bax, and Bcl2 in PACA2- and A549-treated cells. Also, the concentrations of caspase-8, Bax, and Bcl2 in MCF7-treated cells were detected. The procedures were followed up according to the instructions described in the following kits; Invitrogen human Caspase-3 Elisa Kit, Catalog KHO1091, DRG® human Caspase-8 ELISA Kit, Catalog (EIA-4863), Human Bax ELISA Kit (ab199080) and Human Bcl-2 ELISA Kit (ab119506) respectively. Shortly, the protocol described in the above kits was as followed; at the beginning, all the reagents, samples and standards were prepared. 100 μl of samples or standard were micro pipetted to each well of micro-well strip and kept at room temperature for 2 h. After washing the micro-well strips three times with washing buffer, the prepared antibody (anti-rabbit-IgG-HRP) at a concentration of 100 μl was added to each well at room temperature for 1 h. Then, the micro-well strips were washed again three times. Afterward, the prepared tetramethyl-benzidine (TMB) solution (100 μl) was added to the micro-well strips and kept for 10 min. At last, about 50 μl of stop solution was pipetted to each well to inactivate the enzyme completely. The absorbance of all samples was measured at a wavelength of 460 nm and compared to that of the standard. Curve fitting software was used to plot a standard curve and the concentrations for the unknown samples were measured from the standard curve.

The next data set relates to DR4. Nature of the data set: RT-qPCR DR4 mRNA in MCF7. The settings on record: MCF7, vs negative control. Format: cell-based, human. As for the experimental part: All of the extractions were conducted on ice with ice-cold reagents. Total RNA from the different cell lines was isolated using Trizol (Invitrogen; Life Technologies, USA) according to the method of Sthoeger et al.. The 260:280 ratios were measured to determine RNA quality after the isolation method was completed according to the manufacturer’s instructions. A high-capacity cDNA reverse transcription kit was used to produce complementary DNA (cDNA) (Applied Biosystems, USA). […] The relative gene expression method (i.e., ΔΔCT) was used to analyze the real-time PCR data, as explained in Applied Biosystem User Bulletin No. 2. Each sample and gene were normalized using the β-actin gene.

The mark [4] stands for this setting: read-out: MTT cell proliferation mortality assay (%) HCT116, at 100 μg/ml, 72 h.
Where [5] appears, read: read-out: MTT cell proliferation mortality assay (%) PC3, at 100 μg/ml, 72 h.
[6] abbreviates: read-out: MTT cell proliferation mortality assay (%) A549, at 100 μg/ml, 72 h.

Broadly, the IC50 is the concentration at which inhibition is half-maximal.

Converted amounts (≈) assume the structure as drawn. “Also recorded” adds a separate entry of the source. Read-outs that look alike come from different tables or passages of the source.

For the compound `COc1ccc(-c2c(Cl)n(-c3ccc(Cl)cc3Cl)c3ncnc(Cl)c23)cc1OC` [Compound 4b, 4,6-dichloro-7-(2,4-dichlorophenyl)-5-(3,4-dimethoxyphenyl)-7H-pyrrolo[2,3-d]pyrimidine], the IC50 was 58.4 ± 0.7 µg/mL (≈ 124 µM) in data set [1]; 28.5 ± 0.8 µg/mL (≈ 60.7 µM) in data set [2]; 17.5 ± 0.4 µg/mL (≈ 37.3 µM) with A549 lung cancer cells; 45.8 ± 1 µg/mL (≈ 97.6 µM) with MCF7 breast cancer cells; 84.3 ± 0.7 µg/mL (≈ 180 µM) in the data set with HePG2 liver cancer cells. The cytotoxicity at 100 µg/mL in data set [1] (setting [4]) is 80 to 90%; in data set [2] (setting [5]) it was 100%; with A549 lung cancer cells (setting [6]) it was 100%; in the data set on MCF7 breast cancer cells, 90.3 ± 4.9%; in data set [3], 100%; in the data set with HePG2 liver cancer cells, 84.3 ± 0.9%. For the same compound, the results for the cytotoxicity (in data set [1] (setting [4]); in the data set on MCF7 breast cancer cells) were 90.2 ± 1% and 80 to 95%, respectively.

`NNc1ncnc2c1c(-c1ccc(Br)cc1)c(Cl)n2-c1ccc(Cl)cc1Cl` [Compound 14a, 5-(4-bromophenyl)-6-chloro-7-(2,4-dichlorophenyl)-4-hydrazineyl-7H-pyrrolo[2,3-d]pyrimidine]: the cytotoxicity at 100 µg/mL (in data set [1] (setting [4]); in the data set on A549 lung cancer cells (setting [6]); with MCF7 breast cancer cells; in data set [3]; in the data set with HePG2 liver cancer cells) was 100% throughout. Also, in the data set on Bcl2, the “Bcl2 level (ELISA)” value came out at 2.4 pg/mL. The IC50 worked out at 1.7 ± 0.4 µg/mL (≈ 3.52 µM) in the data set with MCF7 breast cancer cells and 37.9 ± 0.9 µg/mL (≈ 78.4 µM) with HePG2 liver cancer cells. Moreover, the “DR4 mRNA level” value in the data set on DR4 is reported as “increased; also recorded: up-regulated”.

With `COc1ccc(-c2c(Cl)n(-c3ccc(Cl)cc3Cl)c3ncnc(NN)c23)cc1OC` [Compound 14b, 6-chloro-7-(2,4-dichlorophenyl)-5-(3,4-dimethoxyphenyl)-4-hydrazineyl-7H-pyrrolo[2,3-d]pyrimidine], the cytotoxicity at 100 µg/mL in data set [1] (setting [4]) is 100%; in data set [2] (setting [5]) it was 100%; in the data set with A549 lung cancer cells (setting [6]) it was 100%; with MCF7 breast cancer cells it was 94.9 ± 1.1%; in data set [3], 100%; with HePG2 liver cancer cells, 100%. Further, the “Bcl2 level (ELISA)” value with Bcl2 turned out to be 8.25 pg/mL. In addition, the IC50 turned out to be 18.7 ± 0.2 µg/mL (≈ 40.2 µM) in data set [2], 16.8 ± 0.9 µg/mL (≈ 36.1 µM) in the data set with MCF7 breast cancer cells and 17.5 ± 0.8 µg/mL (≈ 37.7 µM) with HePG2 liver cancer cells. Besides, the cytotoxicity in the data set on MCF7 breast cancer cells was 80 to 95%. Also, in the data set with DR4, the “DR4 mRNA level” value is on record as “increased; also recorded: up-regulated”.

With `COc1ccc(-c2c(Cl)n(-c3ccc(Cl)cc3Cl)c3ncnc(N4CCN(C)CC4)c23)cc1OC` [Compound 16b, 6-chloro-7-(2,4-dichlorophenyl)-5-(3,4-dimethoxyphenyl)-4-(4-methylpiperazin-1-yl)-7H-pyrrolo[2,3-d]pyrimidine], the “Bcl2 level (ELISA)” value in the data set with Bcl2 was 4.25 pg/mL. The cytotoxicity at 100 µg/mL (with A549 lung cancer cells (setting [6]); in the data set with MCF7 breast cancer cells; in data set [3]) was 100% throughout. Further, the half-maximal inhibitory concentration (IC50) with MCF7 breast cancer cells was 5.7 ± 0.9 µg/mL (≈ 10.7 µM). The “DR4 mRNA level” value in the data set on DR4 was “increased”.

In the case of `CN1CCN(c2nc(C(Cl)(Cl)Cl)nc3c2c(-c2ccc(Br)cc2)c(Cl)n3-c2ccc(Cl)cc2Cl)CC1` [Compound 17, 5-(4-bromophenyl)-6-chloro-7-(2,4-dichlorophenyl)-4-(4-methylpiperazin-1-yl)-2-(trichloromethyl)-7H-pyrrolo[2,3-d]pyrimidine], the IC50 was 37.8 ± 0.4 µg/mL (≈ 56.5 µM) in data set [1]; 66.8 ± 2 µg/mL (≈ 99.8 µM) in data set [2]; 34.1 ± 1.5 µg/mL (≈ 51 µM) in the data set with A549 lung cancer cells; 6.4 ± 0.7 µg/mL (≈ 9.57 µM) in data set [3]; 8.7 ± 0.8 µg/mL (≈ 13 µM) with HePG2 liver cancer cells. Also, the cytotoxicity at 100 µg/mL is 100% in data set [1] (setting [4]); 80 to 90% in data set [2] (setting [5]); 80 to 90% in the data set with A549 lung cancer cells (setting [6]); 74.3 ± 1.7% with MCF7 breast cancer cells; 100% in data set [3]; 100% with HePG2 liver cancer cells. The cytotoxicity in data set [2] (read-out: MTT cell proliferation mortality assay (%) PC3, at 100 μg/ml) turned out to be 79.5 ± 0.5%; in the data set on A549 lung cancer cells (setting [6]), 89.2 ± 0.4%.

For the compound `COc1ccc(-c2c(Cl)n(-c3ccc(Cl)cc3Cl)c3ncnc(N4CCOCC4)c23)cc1OC` [Compound 18b, 4-(6-chloro-7-(2,4-dichlorophenyl)-5-(3,4-dimethoxyphenyl)-7H-pyrrolo[2,3-d]pyrimidin-4-yl)morpholine], the “Bcl2 level (ELISA)” value in the data set with Bcl2 came out at 9.24 pg/mL. Also, the IC50 in data set [2] was found to be 19.2 ± 0.9 µg/mL (≈ 36.9 µM); in the data set with MCF7 breast cancer cells it was 3.4 ± 0.3 µg/mL (≈ 6.54 µM); in data set [3], 15 ± 0.9 µg/mL (≈ 28.9 µM); in the data set with HePG2 liver cancer cells, 28.1 ± 0.4 µg/mL (≈ 54.1 µM). Besides, the cytotoxicity at 100 µg/mL in data set [2] (setting [5]) was determined as 100%; with A549 lung cancer cells (setting [6]), 11.2 ± 0.6%; in the data set with MCF7 breast cancer cells, 100%; in data set [3], 100%; in the data set on HePG2 liver cancer cells it was 100%. For the same compound, the “DR4 mRNA level” value with DR4 was “increased; also recorded: up-regulated”.

Take `COc1cccc2c1C(=O)c1c(O)c3c(c(O)c1C2=O)C[C@@](O)(C(=O)CO)C[C@@H]3O[C@H]1C[C@H](N)[C@H](O)[C@H](C)O1` [Dox, Doxorubicin, reference compound]: the half-maximal inhibitory concentration (IC50) in data set [1] was found to be 37.6 ± 0.8 µg/mL (≈ 69.2 µM); in data set [2], 23.8 ± 0.2 µg/mL (≈ 43.8 µM); with A549 lung cancer cells, 28.3 ± 1.3 µg/mL (≈ 52.1 µM); in the data set with MCF7 breast cancer cells it was 26.1 ± 0.1 µg/mL (≈ 48 µM); in data set [3], 28.3 ± 0.4 µg/mL (≈ 52.1 µM); in the data set with HePG2 liver cancer cells, 21.6 ± 0.8 µg/mL (≈ 39.7 µM). Besides, the cytotoxicity at 100 µg/mL (in data set [1] (read-out: MTT cell proliferation mortality assay (%) HCT116); in data set [2] (read-out: MTT cell proliferation mortality assay (%) PC3); in the data set with A549 lung cancer cells (read-out: MTT cell proliferation mortality assay (%) A549); in the data set with MCF7 breast cancer cells; in data set [3]; in the data set with HePG2 liver cancer cells) was 100% in each case. For the same compound, the “DR4 mRNA level” value in the data set on DR4 is reported as “increased”.
